Reference: US10011597B2 (APOGLYX AB, priority 2014, dated 2018)

These molecules were tested against T1, human aquaporin 9 (Homo sapiens, UniProt O43315) (assay: Calcein quenching fluostar assay). Details: inhibition of human aquaporin 9; Human AQP9 cell line, tetracyclin-induced; 25° C.
T1 construct: expressed in transfected cells; host or cells: Human AQP9 cell line with tetracycline added to the medium
T1 sequence (O43315 1-295): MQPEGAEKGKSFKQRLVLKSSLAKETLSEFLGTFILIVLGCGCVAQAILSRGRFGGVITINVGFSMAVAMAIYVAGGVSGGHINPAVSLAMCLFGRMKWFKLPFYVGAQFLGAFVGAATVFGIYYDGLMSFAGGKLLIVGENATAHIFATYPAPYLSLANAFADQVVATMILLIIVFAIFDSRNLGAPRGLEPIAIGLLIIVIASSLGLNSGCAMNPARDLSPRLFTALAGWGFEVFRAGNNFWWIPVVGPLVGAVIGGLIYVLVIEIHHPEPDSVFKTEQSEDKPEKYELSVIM
Type: cell-based
Procedure: Calcein Quenching Fluostar Assay
A calcein quenching fluostar assay was performed in order to investigate the biological activity of the newly synthesized examples 1 to 57. This type of assay is disclosed in J. Biol. Chem., 2011, 286, 44319-44325 and Am. J. Physiol. Renal Physiol. (2010), 298, F224-230.
1) Two days prior to commencement of the assay, seed 10,000 cells/well of 96 well black clear bottom plate (Greiner Poly-lysin plate). A 1:1 mix of Dulbecco's Modified Eagle's Medium:Nutrient Mixture F-12 (DMEM: F12) was obtained from Gibco. Tetracycline stock of 5 mg/ml in 96% ethanol is used. Medium:DMEM/F12/10% Donor Bovine Serum, Human AQP9 cell line+1:270,000 tetracyclin, mouse AQP9 cell line+1:2,700,000 tetracycline.
2) Day of assay: Flick/slam off the medium and add 50 μl/well of loading solution: 5 ml DMEM/F12/10% Donor Bovine Serum, 25 μl Calcein AM—from freshly dissolved aliquot in 50 μl DMSO (VWR #734-1434), and 100 μl Probenecid.
3) Incubate the well for 90 minutes at 37° C.
4) Perform one wash with 75 μl wash buffer.
5) Add 75 μl of an example compound prepared in wash buffer per well.
Example compounds are prepared in 500 μl U bottom PP plates (NUNC). […] Substance in DMSO are added to row A; 180 μl of wash buffer+1% DMSO are added to rows B-H. 90 μl from row A are transferred and mixed with all other wells (up to row G) to make a 3-fold dilution series.
6) Assay in FLUOstar Optima at 25° C. Settings buffer addition at 135 μl seconds, add 75 μl/well, record time course for 30 seconds, add sucrose buffer 3.6 seconds into recording.
7) Normalization to initial in Excel.
8) Fit to “exponential decay” function in GraphPad Prism 5.0, then arrange half live shrinking values according to wells and fit dose-response curves.

Point of comparison: `CCn1c(SCC(=O)Nc2nnc(-c3cccc(OC)c3)s2)nnc1-c1ccc(F)cc1` [Example 5, 2-{[4-ethyl-5-(4-fluorophenyl)-4H-1,2,4-triazol-3-yl]sulfanyl}-N-[5-(3-methoxyphenyl)-1,3,4-thiadiazol-2-yl]acetamide], IC50 4830 nM. Against it:
- CCn1c(SCC(=O)Nc2nnc(-c3ccc(SC)cc3)s2)nnc1-c1ccc(F)cc1 [Example 55, 2-{[4-ethyl-5-(4-fluorophenyl)-4H-1,2,4-triazol-3-yl]sulfanyl}-N-{5-[4-(methylsulfanyl)phenyl]-1,3,4-thiadiazol-2-yl}acetamid] — 7.1-fold lower, 676 nM
- CCn1c(SCC(=O)Nc2nnc(-c3ccc(S(C)(=O)=O)cc3)s2)nnc1-c1cccnc1 [Example 57, 2-{[4-ethyl-5-(pyridin-3-yl)-4H-1,2,4-triazol-3-yl]sulfanyl}-N-[5-(4-methanesulfonylphenyl)-1,3,4-thiadiazol-2-yl]acetamide] — 36-fold lower, 133 nM
- CCn1c(SCC(=O)Nc2nnc(-c3ccc(OC)cc3)s2)nnc1-c1ccccc1F [Example 17, 2-{[4-Ethyl-5-(2-fluorophenyl)-4H-1,2,4-triazol-3-yl]sulfanyl}-N-[5-(4-methoxyphenyl)-1,3,4-thiadiazol-2-yl]acetamide] — 35-fold lower, 139 nM
- CCn1c(SCC(=O)Nc2nnc(-c3ccc(OC)cc3)s2)nnc1-c1ccccn1 [Example 41, 2-{[4-ethyl-5-(pyridin-2-yl)-4H-1,2,4-triazol-3-yl]sulfanyl}-N-[5-(4-methoxyphenyl)-1,3,4-thiadiazol-2-yl]acetamide] — 19-fold lower, 260 nM
- CCn1c(SCC(=O)Nc2nnc(-c3ccc(S(C)(=O)=O)cc3)s2)nnc1-c1ccncc1 [Example 56, 2-{[4-ethyl-5-(pyridin-4-yl)-4H-1,2,4-triazol-3-yl]sulfanyl}-N-[5-(4-methanesulfonylphenyl)-1,3,4-thiadiazol-2-yl]acetamid] — 32-fold lower, 151 nM
- CCn1c(SCC(=O)Nc2nnc(-c3ccc(F)cc3)s2)nnc1-c1ccc(C)cc1 [Example 24, 2-{[4-Ethyl-5-(4-methylphenyl)-4H-1,2,4-triazol-3-yl]sulfanyl}-N-[5-(4-fluorophenyl)-1,3,4-thiadiazol-2-yl]acetamide] — 11-fold lower, 427 nM
- CCn1c(SCC(=O)Nc2nnc(-c3ccccc3F)s2)nnc1-c1ccc(F)cc1 [Example 38, 2-{[4-ethyl-5-(4-fluorophenyl)-4H-1,2,4-triazol-3-yl]sulfanyl}-N-[5-(2-fluorophenyl)-1,3,4-thiadiazol-2-yl]acetamide] — 25-fold lower, 190 nM
- Cn1c(SCC(=O)Nc2nnc(-c3ccc(F)cc3)s2)nnc1-c1ccncc1 [Example 9, N-[5-(4-fluorophenyl)-1,3,4-thiadiazol-2-yl]-2-{[4-methyl-5-(pyridin-4-yl)-4H-1,2,4-triazol-3-yl]sulfanyl}acetamide] — 43-fold lower, 112 nM
- COc1ccc(-c2nnc(NC(=O)CSc3nnc(-c4ccncc4)n3C)s2)cc1 [Example 10, N-[5-(4-methoxyphenyl)-1,3,4-thiadiazol-2-yl]-2-{[4-methyl-5-(pyridin-4-yl)-4H-1,2,4-triazol-3-yl]sulfanyl}acetamide] — 130-fold lower, 37 nM
- COc1ccccc1-c1nnc(NC(=O)CSc2nnc(-c3ccc(F)cc3)n2C)s1 [Example 4, 2-{[5-(4-Fluorophenyl)-4-methyl-4H-1,2,4-triazole-3-yl]sulfanyl}-N-[5-(2-methoxyphenyl)-1,3,4-thiadizole-2-yl]-acetamide] — within 1.5-fold, 4740 nM
- CCn1c(SCC(=O)Nc2nnc(-c3ccc(OC)cc3)s2)nnc1-c1cccc(OC)c1 [Example 22, 2-{[4-Ethyl-5-(3-methoxyphenyl)-4H-1,2,4-triazol-3-yl]sulfanyl}-N-[5-(4-methoxyphenyl)-1,3,4-thiadiazol-2-yl]acetamide] — 30-fold lower, 160 nM
- CCn1c(SCC(=O)Nc2nnc(-c3ccc(F)cc3)s2)nnc1-c1ccc(F)cc1 [Example 12, 2-{[4-Ethyl-5-(4-fluorophenyl)-4H-1,2,4-triazol-3-yl]sulfanyl}-N-[5-(4-fluorophenyl)-1,3,4-thiadiazol-2-yl]acetamide] — 86-fold lower, 56 nM
- COc1ccc(-c2nnc(NC(=O)CSc3nnc(-c4ccccc4)n3CCO)s2)cc1 [Example 52, 2-{[4-(3-hydroxyethyl)-5-phenyl-4H-1,2,4-triazol-3-yl]sulfanyl}-N-[5-(4-methoxyphenyl)-1,3,4-thiadiazol-2-yl]acetamide] — 82-fold lower, 59 nM
- Cn1c(SCC(=O)Nc2nnc(-c3ccccc3F)s2)nnc1-c1ccncc1 [Example 2, N-[5-(2-fluorophenyl)-1,3,4-thiadiazol-2-yl]-2-{[4-methyl-5-(pyridin-4-yl)-4H-1,2,4-triazol-3-yl]sulfanyl}acetamide] — 25-fold lower, 193 nM
- CCn1c(SC(C)C(=O)Nc2nnc(-c3ccc(OC)cc3)s2)nnc1-c1ccc(F)cc1 (stereo not shown) [Example 35, 2-{[4-Ethyl-5-(4-fluorophenyl)-4H-1,2,4-triazol-3-yl]sulfanyl}-N-[5(4-methoxyphenyl)-1,3,4-thiadiazol-2-yl]propanamide] — 16-fold lower, 301 nM
- CCn1c(SCC(=O)Nc2nnc(-c3ccc(OCCOC)cc3)s2)nnc1-c1ccc(F)cc1 [Example 37, 2-{[4-ethyl-5-(4-fluorophenyl)-4H-1,2,4-triazol-3-yl]sulfanyl}-N-{5-[4-(2-methoxyethoxy)phenyl]-1,3,4-thiadiazol-2-yl}acetamide] — 59-fold lower, 82 nM
- COc1ccc(-c2nnc(NC(=O)CSc3nnc(-c4ccccc4)n3CC(N)=O)s2)cc1 [Example 50, 2-{[4-(carbamoylmethyl)-5-phenyl-4H-1,2,4-triazol-3-yl]sulfanyl}-N-[5-(4methoxyphenyl)-1,3,4-thiadiazol-2-yl]acetamide] — 24-fold lower, 200 nM
- CCn1c(SCC(=O)Nc2nnc(-c3ccc(F)cc3)s2)nnc1-c1ccc(Cl)cc1 [Example 43, 2-{[5-(4-chlorophenyl)-4-ethyl-4H-1,2,4-triazol-3-yl]sulfanyl}-N-[5-(4-fluorophenyl)-1,3,4-thiadiazol-2-yl]acetamide] — 52-fold lower, 92 nM
- CCn1c(SCC(=O)Nc2nnc(-c3ccc(OC)cc3)s2)nnc1-c1ccc(C)cc1 [Example 15, 2-{[4-Ethyl-5-(4-methylphenyl)-4H-1,2,4-triazol-3-yl]sulfanyl}-N-[5-(4-methoxyphenyl)-1,3,4-thiadiazol-2-yl]acetamide] — 18-fold lower, 262 nM
- CCn1c(SCC(=O)Nc2nnc(-c3ccc(OC)cc3)s2)nnc1-c1ccccc1Cl [Example 19, 2-{[5-(2-Chlorophenyl)-4-ethyl-4H-1,2,4-triazol-3-yl]sulfanyl}-N-[5-(4-methoxyphenyl)-1,3,4-thiadiazol-2-yl]acetamide] — 21-fold lower, 233 nM
- Cn1c(SCC(=O)Nc2nnc(-c3ccccc3F)s2)nnc1-c1ccc(F)cc1 [Example 8, 2-{[5-(4-Fluorophenyl)-4-methyl-4H-1,2,4-triazole-3-yl]sulfanyl}-N-[5-(2-fluorophenyl)-1,3,4-thiadizole-2-yl]-acetamide] — 31-fold lower, 157 nM
- CCn1c(SCC(=O)Nc2nnc(-c3ccc(F)cc3)s2)nnc1-c1cccc(OC)c1 [Example 25, 2-{[4-Ethyl-5-(3-methoxyphenyl)-4H-1,2,4-triazol-3-yl]sulfanyl}-N-[5-(4-fluorohenyl)-1,3,4-thiadiazol-2-yl]acetamide] — 13-fold lower, 375 nM
- CCn1c(SCC(=O)Nc2nnc(-c3ccc(OC)cc3)s2)nnc1-c1ccc(Cl)cc1 [Example 40, 2-{[5-(4-chlorophenyl)-4-ethyl-4H-1,2,4-triazol-3-yl]sulfanyl}-N-[5-(4-methoxyphenyl)-1,3,4-thiadiazol-2-yl]acetamide] — 6-fold lower, 810 nM
- CCn1c(SCC(=O)Nc2nnc(-c3ccc(F)cc3)s2)nnc1-c1ccccc1F [Example 27, 2-{[4-Ethyl-5-(2-fluorophenyl)-4H-1,2,4-triazol-3-yl]sulfanyl}-N-[5-(4-fluorophenyl)-1,3,4-thiadiazol-2-yl]acetamide] — 13-fold lower, 366 nM
- CCn1c(SCC(=O)Nc2nnc(-c3ccc(F)cc3)s2)nnc1-c1cccc(C)c1 [Example 23] — 13-fold lower, 372 nM
- CCCn1c(SCC(=O)Nc2nnc(-c3ccc(OC)cc3)s2)nnc1-c1ccc(F)cc1 [Example 32, 2-{[5-(4-Fluorophenyl)-4-propyl-4H-1,2,4-triazol-3-yl]sulfanyl}-N-[5-(4-methoxyphenyl)-1,3,4-thiadiazol-2-yl]acetamide] — 12-fold lower, 416 nM
- CCn1c(SCC(=O)Nc2nnc(-c3ccc(F)cc3)s2)nnc1-c1cccc(F)c1 [Example 28] — 24-fold lower, 200 nM
